Results from PubChem BioAssay AID200 (DTP/NCI, 2004).
Where “and” joins values, the source holds several entries; their conditions need not be identical. Identical values can stand only once. Inconclusive results and toxic doses are left out.

System: B6C3F1 mice, B16 melanoma ip, median survival T/C
Assay: NCI In Vivo Anticancer Drug Screen. Data for tumor model B16 Melanoma (intraperitoneal) in B6C3F1 mice
Details: endpoint: median survival time, schedule: Q01DX009 (ip), higher = longer survival
Outline: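 Transplantable tumor in mice; treated vs vehicle control groups; survival or tumor size measured; value = T/C ratio.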

[1] = dose: 12.5 mg/kg/injection, vehicle: saline with Tween-80
[2] = dose: 25.0 mg/kg/injection, vehicle: saline with Tween-80
[3] = dose: 50.0 mg/kg/injection, vehicle: saline with Tween-80
[4] = dose: 100.0 mg/kg/injection, vehicle: saline with Tween-80
[5] = dose: 200.0 mg/kg/injection, vehicle: saline with Tween-80
[6] = dose: 400.0 mg/kg/injection, vehicle: saline with Tween-80
[7] = dose: 6.25 mg/kg/injection, vehicle: saline
[8] = dose: 12.5 mg/kg/injection, vehicle: saline
[9] = dose: 50.0 mg/kg/injection, vehicle: suspension in saline
[10] = dose: 12.5 mg/kg/injection, vehicle: Klucel (hydroxypropylcellulose) (HPC)
[11] = dose: 25.0 mg/kg/injection, vehicle: Klucel (hydroxypropylcellulose) (HPC)
[12] = dose: 50.0 mg/kg/injection, vehicle: Klucel (hydroxypropylcellulose) (HPC)
[13] = dose: 6.25 mg/kg/injection, vehicle: Klucel (hydroxypropylcellulose) (HPC)

In the case of `C[Si](C)(C)n1nnn(-c2ccccc2)c1=O`, the T/C [1] is reported as 101 % of control and 103 % of control, the T/C [2] is reported as 100 % of control and 105 % of control and the T/C [3] is reported as 119 % of control and 100 % of control. The T/C [4] was 92 % of control and 95 % of control, the T/C [5] was 93 % of control and 101 % of control and the T/C [6] was 95 % of control.
For `COC1=CC(=O)c2c(O)cc(OC)c(O)c2C1=O`, the T/C (dose: 1.25 mg/kg/injection, vehicle: saline with Tween-80) was 105 % of control, the T/C (dose: 2.5 mg/kg/injection, vehicle: saline with Tween-80) was 121 % of control and the T/C (dose: 5.0 mg/kg/injection, vehicle: saline with Tween-80) was 121 % of control. For the same compound, the T/C (dose: 10.0 mg/kg/injection, vehicle: saline with Tween-80) was 121 % of control.
With `CC[C@@H](C)[C@H]([C@H](CC(=O)N1CCC[C@@H]1[C@@H](OC)[C@H](C)C(=O)N[C@H](Cc1ccccc1)c1nccs1)OC)N(C)C(=O)[C@H](NC(=O)[C@@H](C(C)C)N(C)C)C(C)C` the T/C (dose: 2.4 micrograms/kg/injection, vehicle: saline + alcohol) was 171 % of control, the T/C (dose: 4.0 micrograms/kg/injection, vehicle: saline + alcohol) was 205 % of control and the T/C (dose: 6.67 micrograms/kg/injection, vehicle: saline + alcohol) was 182 % of control. For the same compound, the T/C (dose: 11.11 micrograms/kg/injection, vehicle: saline + alcohol) was 238 % of control.
`CC(C#N)(C#N)N=Nc1ccc(Cl)cc1Cl` was tested, and the T/C [1] was 98 % of control, the T/C [2] was 95 % of control and the T/C [3] was 95 % of control. The T/C [4] was 95 % of control, the T/C [5] was 110 % of control and the T/C [6] was 89 % of control.
For `Cc1ncc(O)c(CO)c1O`, the T/C (dose: 0.78 mg/kg/injection, vehicle: saline) was 102 % of control, the T/C (dose: 1.56 mg/kg/injection, vehicle: saline) was 102 % of control and the T/C (dose: 3.13 mg/kg/injection, vehicle: saline) was 99 % of control. For the same compound, the T/C [7] was 105 % of control, the T/C [8] was 101 % of control and the T/C (dose: 25.0 mg/kg/injection, vehicle: saline) was 91 % of control. For the same compound, the T/C (dose: 50.0 mg/kg/injection, vehicle: saline) was 96 % of control.
For `CCc1ncnc2cc(OCC3CO3)c(OC)cc12` (stereo unspecified), the T/C (dose: 6.25 mg/kg/injection, vehicle: suspension in saline) was 118 % of control and the T/C [9] was 117 % of control.
In the case of `CC(=O)OC1=C(Cl)CCc2ccccc21`, the T/C (dose: 37.5 mg/kg/injection, vehicle: saline with Tween-80) is reported as 115 % of control, the T/C (dose: 75.0 mg/kg/injection, vehicle: saline with Tween-80) is reported as 96 % of control and the T/C (dose: 150.0 mg/kg/injection, vehicle: saline with Tween-80) is reported as 98 % of control.
For `CN(C)N=Nc1ccnc2ccc(I)cc12`, the T/C (dose: 3.13 mg/kg/injection, vehicle: other) was 111 % of control, the T/C (dose: 6.25 mg/kg/injection, vehicle: other) was 115 % of control and the T/C (dose: 12.5 mg/kg/injection, vehicle: other) was 109 % of control. The T/C (dose: 25.0 mg/kg/injection, vehicle: other) was 110 % of control and the T/C (dose: 50.0 mg/kg/injection, vehicle: other) was 114 % of control.
`NC(=O)c1ccc[n+](Cc2c(Cl)cccc2Cl)c1` was tested, and the T/C (dose: 1.5 mg/kg/injection, vehicle: saline) was 98 % of control, the T/C (dose: 3.0 mg/kg/injection, vehicle: saline) was 98 % of control and the T/C (dose: 6.0 mg/kg/injection, vehicle: saline) was 103 % of control. The T/C (dose: 12.0 mg/kg/injection, vehicle: saline) was 98 % of control.
In the case of `CSc1nc(=O)[nH]nc1SCc1ccccc1`, the T/C [10] is reported as 105 % of control, the T/C [11] is reported as 104 % of control and the T/C [12] is reported as 104 % of control. For the same compound, the T/C (dose: 100.0 mg/kg/injection, vehicle: Klucel (hydroxypropylcellulose) (HPC)) was 107 % of control, the T/C (dose: 200.0 mg/kg/injection, vehicle: Klucel (hydroxypropylcellulose) (HPC)) was 96 % of control and the T/C (dose: 400.0 mg/kg/injection, vehicle: Klucel (hydroxypropylcellulose) (HPC)) was 115 % of control.
In the case of `[Cl][Pt+2][Cl].[NH-]c1ccc(C(=O)c2ccccc2)cc1[NH-]`, the T/C (dose: 20.0 mg/kg/injection, vehicle: saline with Tween-80) is reported as 109 % of control and 107 % of control, the T/C (dose: 40.0 mg/kg/injection, vehicle: saline with Tween-80) is reported as 114 % of control and 116 % of control and the T/C (dose: 80.0 mg/kg/injection, vehicle: saline with Tween-80) is reported as 112 % of control and 115 % of control. For the same compound, the T/C (dose: 160.0 mg/kg/injection, vehicle: saline with Tween-80) was 116 % of control and the T/C (dose: 320.0 mg/kg/injection, vehicle: saline with Tween-80) was 110 % of control and 121 % of control.
With `NS(=O)(=O)OCCCCCCCOS(N)(=O)=O` the T/C [1] was 115 % of control and the T/C [3] was 171 % of control.
In the case of `CC1CCC2C(C)C(=O)OC2C2(C)C(=O)C=CC12` (stereo unspecified), the T/C (dose: 14.0 mg/kg/injection, vehicle: Klucel (hydroxypropylcellulose) (HPC)) is reported as 95 % of control, the T/C (dose: 22.0 mg/kg/injection, vehicle: Klucel (hydroxypropylcellulose) (HPC)) is reported as 95 % of control and the T/C (dose: 35.0 mg/kg/injection, vehicle: Klucel (hydroxypropylcellulose) (HPC)) is reported as 97 % of control. For the same compound, the T/C [12] was 97 % of control.
`O=[n+]1c2c(n([O-])c3ccccc31)-c1cccc3cccc-2c13` was tested, and the T/C (dose: 3.12 mg/kg/injection, vehicle: saline) was 99 % of control, the T/C [7] was 91 % of control and the T/C [8] was 94 % of control.
With `Nc1ccc2ccc(NS(=O)(=O)N3CCCCC3)cc2c1` the T/C [2] was 110 % of control, the T/C [3] was 98 % of control and the T/C [4] was 111 % of control. The T/C [5] was 107 % of control.
With `O=C(O)C1C2CC3C(C2)C31.[Ag]` (stereo unspecified) the T/C [13] was 90 % of control, the T/C [10] was 88 % of control and the T/C [11] was 100 % of control.
`O=C1NC(O)c2ccccc2O1` (stereo unspecified) was tested, and the T/C [1] was 99 % of control, the T/C (dose: 12.5 mg/kg/injection, vehicle: suspension in saline) was 101 % of control and the T/C [2] was 103 % of control. The T/C (dose: 25.0 mg/kg/injection, vehicle: suspension in saline) was 103 % of control, the T/C [3] was 103 % of control and the T/C [9] was 101 % of control. For the same compound, the T/C [4] was 106 % of control, the T/C (dose: 100.0 mg/kg/injection, vehicle: suspension in saline) was 98 % of control and the T/C [5] was 114 % of control. The T/C (dose: 200.0 mg/kg/injection, vehicle: suspension in saline) was 100 % of control and the T/C (dose: 400.0 mg/kg/injection, vehicle: suspension in saline) was 95 % of control.
In the case of `O=NN(CCCl)C(=O)Oc1ccc(OC(=O)N(CCCl)N=O)cc1`, the T/C (dose: 3.12 mg/kg/injection, vehicle: Klucel (hydroxypropylcellulose) (HPC)) is reported as 112 % of control, the T/C [13] is reported as 107 % of control and the T/C [10] is reported as 107 % of control.
For `COc1cccc2c1C(=O)c1c(O)c3c(c(O)c1C2=O)C[C@@](O)(C(=O)CO)C[C@@H]3OC1CC(N(C)C)C(O)C(C)O1` (stereo partly specified), the T/C (dose: 0.12 mg/kg/injection, vehicle: saline) was 100 % of control, the T/C (dose: 0.5 mg/kg/injection, vehicle: saline) was 152 % of control and 166 % of control and the T/C (dose: 1.0 mg/kg/injection, vehicle: saline) was 153 % of control and 205 % of control. The T/C (dose: 2.0 mg/kg/injection, vehicle: saline) was 172 % of control and 261 % of control.
